Laboratory results reported in patent US20220041687A1, “A GROUP OF CHIMERIC ANTIGEN RECEPTORS (CARS)” (ST. ANNA KINDERKREBSFORSCHUNG, priority 2018, published 2022).
Read-outs that look alike come from different tables or passages of the source.

Tests used:
[1] = test system: Jurkat T cells expressing tEGFR; test: T cell activation by rcSso7d-based CARs (luciferase-based cytotoxicity assay, IFN-γ ELISA), Example 2; conditions: primary human T cells, 4 hours, E:T 2:1; for cytotoxicity: binder fused to "Ser" CAR backbone (monovalent interaction)
Procedure: Luciferase-expressing tumour cells were co-cultured with CAR T cells at an E:T cell ratio of 2:1 with 10,000 target cells/well in white round-bottom 96 well plates (Sigma Aldrich) for 4 hours at 37° C. in cytotoxicity assay medium, consisting of phenol-free RPMI (Thermo Scientific), 10% FCS, 1% L-Glutamine (Thermo Scientific) and 1% penicillin-streptomycin. Finally, remaining living cells were quantified by determination of the residual luciferase activity of the co-culture. After equilibration to room temperature for 10 minutes, luciferin was added to the cell suspension (150 μg/mL final concentration; Perkin Elmer) and luciferase activity was measured 20 minutes later using the ENSPIRE Multimode plate reader. The percentage of specific lysis was determined with the following formula:
% specific lysis=100−((RLU from well with effector and target cell co-culture)/(RLU from well with target cells only)×100)).
Cytokine secretion of primary CAR T cells was assessed by co-cultivation with target cells at E:T ratios of 1:1 or 2:1 in flat-bottom 96 well plates for 4 hours or 24 hours at 37° C. In some experiments, released cytokines were quantified in the supernatants from the co-culture experiments for determining cytotoxicity. The supernatants were centrifuged (1600 rpm, 7 minutes, 4° C.) to remove remaining cells and debris and were subsequently frozen at −80° C. For analysis of secreted IFN-γ, ELISA was performed using the Human IFN gamma ELISA Ready-SET-Go!® kit (eBioscience) according to the manufacturer's instructions. Measurements were conducted using the ENSPIRE Multimode plate reader.

[2] = test system: human EGFR; test: Binding affinities of rcSso7d-based antigen binding moieties (titration on tEGFR Jurkat T cells, SPR on hEGFR-Fc); conditions: comparison in words; own values only in FIG. 2; read-out: affinity of the binding moiety, stated as comparable to that of scFv 4D5-5
Procedure: Jurkat T cells were engineered to express high levels of the respective tumour antigen. […] After washing in PBS, cells were resuspended in PBS containing 0.1% BSA (Sigma Aldrich) and incubated with varying concentrations of the binder proteins fused to sfGFP in order to determine the affinities of the antigen binding moieties towards the respective tumour antigen. After incubation for 1 hour at 4° C. while shaking, plates were centrifuged (450 g, 7 minutes, 4° C.), the supernatant was discarded and cells were acquired with a BD LSRFortessa. Cells were kept on ice to avoid endocytosis. The Kd was obtained by curve fitting using Microsoft Excel (Microsoft Corporation).
SPR experiments were performed with a Biacore T200 instrument (GE Healthcare). All experiments were conducted in degassed and filtered PBS, pH 7.4, containing 0.1% BSA and 0.05% Tween-20 (Merck Millipore), at 25° C. hEGFR-Fc (R&D) was immobilized on a Protein A sensor chip (GE Healthcare) at a flow rate of 10 μL/min for 60 seconds at a concentration 6.67 μg/mL. To determine the affinity of rcSso7d-based antigen binding moieties, five concentrations (depending on the expected Kd of the antigen binding moiety) of the respective protein were injected at a flow rate of 30 μL/min for 15 seconds in the single-cycle kinetic mode, followed by a dissociation step (30 seconds). […]

[3] = molecular target: human EGFR; conditions: Traxlmayr et al., J Biol Chem. 2016; cited from earlier work
[4] = test system: Jurkat T cells expressing tHER2; test: Functional screening of affibody-based CARs, luciferase-based cytotoxicity assay, Example 4; format: cell-based, human; conditions: affibody variant in CAR backbone 8ser-BB-FKBP (36V)-3z; 10 nM AP20187 or DMSO; 4 hours, E:T 2:1
Procedure: Luciferase-expressing tumour cells were co-cultured with CAR T cells at an E:T cell ratio of 2:1 with 10,000 target cells/well in white round-bottom 96 well plates (Sigma Aldrich) for 4 hours at 37° C. in cytotoxicity assay medium, consisting of phenol-free RPMI (Thermo Scientific), 10% FCS, 1% L-Glutamine (Thermo Scientific) and 1% penicillin-streptomycin. Finally, remaining living cells were quantified by determination of the residual luciferase activity of the co-culture. After equilibration to room temperature for 10 minutes, luciferin was added to the cell suspension (150 μg/mL final concentration) and luciferase activity was measured 20 minutes later using the ENSPIRE Multimode plate reader. The percentage of specific lysis was calculated with the following formula:
Dimerization of transgenes was induced prior to co-cultivation experiments. […] The homodimerization agent AP20187 was diluted in cell culture medium and was added at 10 nM final concentration. Addition of the vehicle control DMSO at the same concentration served as control. Cells were incubated at 37° C. for 30 minutes to ensure efficient dimerization of transgenes and subsequently used for in vitro experiments.

E11.4.1-G25A: alanine mutant G25A of rcSso7d E11.4.1, EGFR binding moiety
cytotoxicity [1]: triggered potent cytotoxicity also upon monovalent interaction

E11.4.1-G32A: low affinity alanine mutant G32A of rcSso7d E11.4.1, EGFR binding moiety with the lowest tested affinity
T cell activation in response to target cells ([1]; binder fused to cysteine-containing CAR backbone ("Cys", bivalent)): efficiently triggered T cell activation
T cell activation in response to target cells ([1]; binder fused to serine-containing CAR backbone ("Ser", monovalent)): did not or only poorly trigger the T cells
Kd [2]: ~1100 nM

rcSso7d E11.4.1: well characterized rcSso7d-based antigen binding moiety which binds to human EGFR (Traxlmayr et al.) [reference compound]
Kd [3]: 19 nM
cytotoxicity [1]: triggered potent cytotoxicity also upon monovalent interaction

zHER2-WT: high-affinity HER2 affibody with framework mutations N23A and S33K
capacity to trigger cytotoxicity in T cells in presence or absence of AP20187 [4]: triggered efficient target cell lysis independent of presence of AP20187
